# From article PMC10491346, “Enzyme Mechanistic Studies of NMA1982, a Protein Tyrosine Phosphatase and Potential Virulence Factor in Neisseria meningitidis” (Research Square, 2023)
# Molecular target: T1, NMA1982 (Neisseria meningitidis, UniProt A1KVD0)
# T1 construct: gene NMC1647
# Assay: biochemical
# T1 sequence (A1KVD0 entry or part of it): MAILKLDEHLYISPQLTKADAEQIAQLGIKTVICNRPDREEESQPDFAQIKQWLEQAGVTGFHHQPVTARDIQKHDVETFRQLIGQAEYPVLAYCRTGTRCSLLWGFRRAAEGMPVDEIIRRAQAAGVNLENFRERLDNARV
smiles,measurement,value
[O]=[V]([OH])([OH])[OH] [sodium orthovanadate],IC50,161 µM
